Reference: paper PMC9701195, “Structural basis for lipid and copper regulation of the ABC transporter MsbA” (Nature Communications, 2022)
Like-named read-outs stand apart in the source and are kept apart here.

Tests used:
MsbA [1] = target: T1, MsbA (Escherichia coli, UniProt P60752); experiment: biochemical; set-up: native mass spectrometry lipid titration of ADP-trapped open outward-facing MsbA, sequential lipid binding model; settings: first lipid; MsbA trapped with ADP and VO4, open outward-facing; read-out: KD1
T1 construct: full length, TEV-cleavable N-terminal His6 tag cut (intact native N-terminus MHND...), expressed in E. coli BL21-AI, delipidated, homodimer in C10E5
Protocol: Lipids were prepared as previously described, in which lipids dissolved in chloroform were dried under nitrogen flow placed under vacuum overnight followed by dissolving in water. The concentration of MsbA was determined using a DC protein assay (BioRad) with bovine serum albumin as the standard. MsbA was incubated with lipids at varying concentrations and mixed with 200 mM ammonium acetate supplemented with 2x CMC lauryldimethylamine oxide (LDAO) at 1:1 volume ratio. Samples were incubated in the nano electrospray ionization source chamber for a minute to reach equilibrium prior to data acquisition. These samples analyzed on Orbitrap Exactive Plus EMR mass spectrometer (Thermo Scientific) operating at identical settings as described above. The mass spectra for each titration event were obtained in triplicate. The mass spectra were deconvoluted using UniDec[55] and the resulting peak intensities for apo and lipid-bound protein were determined. The relative abundance for each species was determined by dividing the peak intensity by the total intensity to convert to mole fraction for each independent experiment. For MsbA (P) binding the N^th lipid (Ln), we applied the following sequential lipid binding model: PLn−1+L⇔KAPLn where: KAn=PLn/[PLn−1]L To determine the impact of MsbA conformation on lipid binding affinity, analogous experiments were performed using MsbA trapped in an open, OF conformation with adenosine diphosphate (ADP) and [compound left out] (VO4). […] For example, in the presence of 0.4 μM of KDL, [compound left out]-trapped MsbA binds up to two lipids whereas the non-trapped protein binds only one KDL (Fig. 3b–c). […] The binding of POPC and POPE are reminiscent of that for MsbA partially loaded with copper(II). […] For MsbA with reduced copper(II) binding, additional 1 mM MgCl2 was added to all buffer and MsbA solution in the purification step using Ni-NTA beads. Copper(II) saturated MsbA was obtained by adding 20 uM copper (II) acetate then buffer exchanged using Bio-Spin column to remove excess copper(II). MsbA trapped by [compound left out] was obtained by adding ATP and MgCl2 to MsbA to reach the final concentration of 10 mM for both then incubating at room temperature for 10 min. After incubation, [compound left out] (pH 10) was added to reach final concentration of […] followed by incubation at 37 °C for 10 min. MsbA samples was buffer exchanged using Bio-Spin column to 200 mM ammonium acetate supplemented with 2x CMC C10E5 for native MS studies. To prepare MsbA samples for Cryo-EM studies, MsbA and trapped MsbA were preloaded with copper(II) then purified by Superdex 200 Increase 10/300 GL size exclusion column equilibrated with 200 mM NaCl, 20 mM HEPES and 2x CMC C10E5 without glycerol. […]

MsbA [2] = target: T1, MsbA; experiment: biochemical; set-up: native mass spectrometry lipid titration, sequential lipid binding model, mole fractions of apo and lipid-bound MsbA; settings: first lipid; MsbA partially loaded with copper(II); read-out: KD1
Protocol: Lipids were prepared as previously described, in which lipids dissolved in chloroform were dried under nitrogen flow placed under vacuum overnight followed by dissolving in water. The concentration of MsbA was determined using a DC protein assay (BioRad) with bovine serum albumin as the standard. MsbA was incubated with lipids at varying concentrations and mixed with 200 mM ammonium acetate supplemented with 2x CMC lauryldimethylamine oxide (LDAO) at 1:1 volume ratio. Samples were incubated in the nano electrospray ionization source chamber for a minute to reach equilibrium prior to data acquisition. These samples analyzed on Orbitrap Exactive Plus EMR mass spectrometer (Thermo Scientific) operating at identical settings as described above. The mass spectra for each titration event were obtained in triplicate. The mass spectra were deconvoluted using UniDec[55] and the resulting peak intensities for apo and lipid-bound protein were determined. The relative abundance for each species was determined by dividing the peak intensity by the total intensity to convert to mole fraction for each independent experiment. For MsbA (P) binding the N^th lipid (Ln), we applied the following sequential lipid binding model: PLn−1+L⇔KAPLn where: KAn=PLn/[PLn−1]L To better understand MsbA-lipid interactions, we determined equilibrium binding constants for MsbA binding to different lipids. For these studies, we selected 1,1′,2,2′-tetraoleoyl-cardiolipin (TOCDL, 72:4) or phosphatidic acid (PA), phosphatidylcholine (PC), phosphatidylethanolamine (PE), phosphatidylglycerol (PG), and phosphatidylserine (PS) containing the acyl chain composition, 1-palmitoyl-2-oleoyl (PO, 16:0-18:1). We also included 3-deoxy-D-manno-oct-2-ulosonic acid (Kdo)2-lipid A (KDL), an LPS precursor known to stimulate MsbA ATPase activity[22]–[24]. Except for PC, these lipids are found in E. coli[40]. MsbA partially and fully loaded with copper(II) was titrated with each lipid followed by recording their native mass spectra (Supplementary Figs. 3–6). The mole fractions of apo and lipid bound states of MsbA were extracted from the deconvoluted MS data and used to determine the equilibrium dissociation constant (KDN) for the Nth binding event (Supplementary Tables 4–5). […] The two tightest binding lipids for MsbA loaded with copper(II) were TOCDL (KD1 = 1.6 µM) and KDL (KD1 = 0.6 µM). POPG binding affinities were largely independent of the copper(II) bound state of MsbA. […] For MsbA with reduced copper(II) binding, additional 1 mM MgCl2 was added to all buffer and MsbA solution in the purification step using Ni-NTA beads. Copper(II) saturated MsbA was obtained by adding 20 uM copper (II) acetate then buffer exchanged using Bio-Spin column to remove excess copper(II). […]

MsbA [3] = target: T1, MsbA; experiment: cryoEM structure […] Å and native MS; type: binding; settings: outward-facing, with KDL and copper(II), NBD site
[4] = target: the molecule itself; experiment: native MS; MsbA in 200 mM ammonium acetate with 2x CMC C10E5; Orbitrap Exactive Plus EMR; partially or fully copper(II)-loaded, also trapped with ADP and vanadate

T1 sequence (P60752 whole entry): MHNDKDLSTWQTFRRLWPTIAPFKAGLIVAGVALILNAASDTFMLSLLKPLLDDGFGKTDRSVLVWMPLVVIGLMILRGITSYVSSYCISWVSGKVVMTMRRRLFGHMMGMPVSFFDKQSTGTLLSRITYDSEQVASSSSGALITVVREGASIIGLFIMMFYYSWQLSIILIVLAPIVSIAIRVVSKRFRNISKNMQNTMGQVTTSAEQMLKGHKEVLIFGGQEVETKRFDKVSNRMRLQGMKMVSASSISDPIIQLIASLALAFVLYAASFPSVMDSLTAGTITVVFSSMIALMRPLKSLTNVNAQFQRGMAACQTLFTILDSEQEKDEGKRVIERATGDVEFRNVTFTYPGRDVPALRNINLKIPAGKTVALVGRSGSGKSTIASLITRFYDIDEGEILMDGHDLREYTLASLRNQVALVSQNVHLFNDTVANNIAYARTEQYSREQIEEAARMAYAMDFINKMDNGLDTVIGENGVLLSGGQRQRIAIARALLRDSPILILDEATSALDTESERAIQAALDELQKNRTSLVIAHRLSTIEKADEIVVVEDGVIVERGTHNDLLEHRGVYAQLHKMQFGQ

Molecule | Kd (MsbA [1]) [nM] | Kd (MsbA [2]) [µM] | further results
CCCCCCCC/C=C\CCCCCCCC(=O)O[C@H](COC(=O)CCCCCCCCCCCCCCC)COP(=O)(O)O [POPA] | 2200 ± 10 | 14.7 ± 1.5 | –
[O]=[V]([OH])([OH])[OH] [vanadate] | – | – | cryoEM structure 3.6 Å and native MS (MsbA [3]; ADP-vanadate-trapped): there is clear density for ADP·VO4 in the NBDs
CCCCCCCC/C=C\CCCCCCCC(=O)O[C@H](COC(=O)CCCCCCCCCCCCCCC)COP(=O)([O-])OCC[N+](C)(C)C [POPC] | 15100 ± 500 | 20.4 ± 1.4 | –
CCCCCCCC/C=C\CCCCCCCC(=O)O[C@H](COC(=O)CCCCCCCCCCCCCCC)COP(=O)(O)OCC(O)CO (some centres unmarked) [POPG] | 2600 ± 100 | 4.9 ± 0.4 | –
Nc1ncnc2c1ncn2[C@@H]1O[C@H](COP(=O)(O)OP(=O)(O)O)[C@@H](O)[C@H]1O [ADP] | – | – | cryoEM structure 3.6 Å and native MS (MsbA [3]; vanadate-trapped): there is clear density for ADP·VO4 in the NBDs
CCCCCCCC/C=C\CCCCCCCC(=O)O[C@H](COC(=O)CCCCCCCCCCCCCCC)COP(=O)(O)OCCN [POPE] | – | 12.4 ± 0.7 | –
CCCCCCCC/C=C\CCCCCCCC(=O)O[C@H](COC(=O)CCCCCCCCCCCCCCC)COP(=O)(O)OC[C@H](N)C(=O)O [POPS] | 2300 ± 300 | – | –
MsbA (ATP-binding cassette transporter MsbA, Escherichia coli) (natural protein, MsbA, Escherichia coli, UniProt P60752; msbA gene amplified from E. coli genomic DNA into pCDF-1b (pCDF-MsbA), N-terminal TEV-cleavable His6; Homodimer; co-purifies with copper(II), one site per subunit at the N-terminus (Met-His-Asn-Asp); For cryo-EM it was loaded with copper(II), apo or trapped with ADP-vanadate, with KDL; also called wild-type MsbA; the transporter; source: E. coli (DE3) …) HNDKDLSTWQTFRRLWPTIAPFKAGLIVAGVALILNAASDTFMLSLLKPLLDDGFGKTDRSVLVWMPLVVIGLMILRGITSYVSSYCISWVSGKVVMTMRRRLFGHMMGMPVSFFDKQSTGTLLSRITYDSEQVASSSSGALITVVREGASIIGLFIMMFYYSWQLSIILIVLAPIVSIAIRVVSKRFRNISKNMQNTMGQVTTSAEQMLKGHKEVLIFGGQEVETKRFDKVSNRMRLQGMKMVSASSISDPIIQLIASLALAFVLYAASFPSVMDSLTAGTITVVFSSMIALMRPLKSLTNVNAQFQRGMAACQTLFTILDSEQEKDEGKRVIERATGDVEFRNVTFTYPGRDVPALRNINLKIPAGKTVALVGRSGSGKSTIASLITRFYDIDEGEILMDGHDLREYTLASLRNQVALVSQNVHLFNDTVANNIAYARTEQYSREQIEEAARMAYAMDFINKMDNGLDTVIGENGVLLSGGQRQRIAIARALLRDSPILILDEATSALDTESERAIQAALDELQKNRTSLVIAHRLSTIEKADEIVVVEDGVIVERGTHNDLLEHRGVYAQLHKMQFGQ | – | – | stoichiometry N [4]: 2
